Source: US20240336565A1, “SOLID FORMS OF OSANETANT” (Acer Therapeutics, Inc., priority 2021, published 2024)
Entries after “also recorded” stand apart in the source; their conditions may differ.

Experiments:
[1] = Comparative studies: 7-day stability; assay type: physicochemical; details: for HPLC Impurity Content: 7 Day Stability
Protocol: Osanetant p-toluenesulfonic acid Form 1, osanetant benzene sulfonic acid Form 3, osanetant naphthalene-2-sulfonic acid Form 3, and osanetant phosphoric acid Form 7 were compared. Osanetant phosphoric acid Form 7 was obtained when preparation of osanetant phosphoric acid Form 4 was repeated and found to be not reproducible, and Form 7 was determined to be a mixture of hydrates).
Thus, osanetant benzene sulfonic acid salt Form 1 and osanetant p-toluene sulfonic acid salt Form 1 were identified as advantageous salts.

[2] = Thermodynamic solubility in water and pH buffers; details: for Concentration: 24 h Solubility at 37° C.
[3] = Solid form stability observations (scale up / polymorph work: drying, ambient conditions, aqueous media); assay type: physicochemical; details: for form stability / re-hydration under ambient conditions: ambient conditions / room temperature and pressure
Protocol: Two anhydrous forms of the osanetant p-toluenesulfonic acid were synthesized. […] Form 6, described below, was a stable anhydrous form, but hydrated in water and aqueous solvent mixtures.
Advantageously, Form 1 (hydrate) and Form 6 (anhydrous) were stable on drying. Form 1 re-hydrated at room temperature and pressure after KF analysis, when it was heated in an oven to remove the water.
The experiment was cooled to 5° C. at a rate of 0.1° C./min and stirred at 5° C. for 18 h. The slurry was isolated be Buchner filtration: 42.5 mm Ø grade 1 Whatman filter paper; fast Filtration (<30 s); the cake was washed with 1 mL of ethyl acetate; the isolated solids were dried at 40° C. under vacuum for 72 h. […]

[4] = Long term stability: acid stability (2M HCl) at ambient temperature; assay type: physicochemical; details: 2M HCl, dark, ambient, up to 14 days
Protocol: (§1) Osanetant p-toluenesulfonic acid Form 1 and osanetant benzenesulfonic acid Form 1 were tested for long-term stability across a number of different conditions, as detailed below.
Acid Stability at Ambient Temperature-Osanetant p-toluenesulfonic acid Form 1 and osanetant benzenesulfonic acid Form 1 were prepared at an osanetant content 10 times the normal working concentration then added to HPLC vials containing 2M HCl and stored in the dark at ambient laboratory conditions. Samples were diluted to 2 mg/mL for analysis and were taken after T=1, 2, 4, 7, and 14 days storage. […] The purity of the resulting material is described in Table 42: […]

[5] = Long term stability: base (2M NaOH) at 60° C.; assay type: physicochemical; details: 2M NaOH, 60° C., up to 14 days
Protocol: as §1
Base at 60° C.—Osanetant p-toluenesulfonic acid Form 1 and osanetant benzenesulfonic acid Form 1 were prepared at an osanetant content 10 times the normal working concentration then added to HPLC vials containing 2M NaOH and stored in a darkened oven at 60° C. Samples were diluted to 2 mg/mL for analysis and were taken after T=1, 2, 4, 7, and 14 days storage. […] The purity of the resulting material is described in Table 45: […]

[6] = Long term stability: oxidation (6% H2O2) at ambient temperature; assay type: physicochemical; details: 6% H2O2, dark, ambient, up to 14 days
Protocol: as §1
Oxidation at Ambient Temperature-Osanetant p-toluenesulfonic acid Form 1 and osanetant benzenesulfonic acid Form 1 were prepared at an osanetant content 10 times the normal working concentration then added to HPLC vials containing 6% H2O2 and stored in the dark at ambient laboratory conditions. Samples were diluted to 2 mg/mL for analysis and were taken after T=1, 2, 4, 7, and 14 days storage. […] The purity of the resulting material is described in Table 46: […]

[7] = Long term stability: thermal stability of solids at 60° C.; assay type: physicochemical; details: solids, darkened oven at 60° C., up to 14 days
Protocol: as §1
Thermal stability of solids at 60° C.—Osanetant p-toluenesulfonic acid Form 1 and osanetant benzenesulfonic acid Form 1 were stored in a darkened oven at 60° C. in glass vials. Samples were taken after T=1, 2, 4, 7, and 14 days storage. […] The purity of the resulting material is described in Table 41: […]

[8] = Long term stability: base (2M NaOH) at ambient temperature; assay type: physicochemical; details: 2M NaOH, dark, ambient, up to 14 days
Protocol: as §1
Base at Ambient Temperature—Osanetant p-toluenesulfonic acid Form 1 and osanetant benzenesulfonic acid Form 1 were prepared at an osanetant content 10 times the normal working concentration then added to HPLC vials containing 2M NaOH and stored in the dark at ambient laboratory conditions. Samples were diluted to 2 mg/mL for analysis and were taken after T=1, 2, 4, 7, and 14 days storage. […] The purity of the resulting material is described in Table 44: […]

[9] = Long term stability: oxidation (6% H2O2) at 60° C.; assay type: physicochemical; details: 6% H2O2, 60° C., up to 14 days
Protocol: as §1
Oxidation at 60° C.—Osanetant p-toluenesulfonic acid Form 1 and osanetant benzenesulfonic acid Form 1 were prepared at an osanetant content 10 times the normal working concentration then added to HPLC vials containing 6% H2O2 and stored in a darkened oven at 60° C. Samples were diluted to 2 mg/mL for analysis and were taken after T=1, 2, 4, 7, and 14 days storage. […] The purity of the resulting material is described in Table 47: […]

[10] = Salt screen: XRPD of isolated solids after drying at 40° C. and at 40° C./75% RH; assay type: physicochemical; details: for XRPD after drying at 40° C./75% RH: after 40° C. drying, dried at 40° C./75% RH for about 24 h, label = form after 40° C. drying; for XRPD after drying at 40° C.: isolated solids dried at 40° C. for about 24 h, label = wet form
Protocol: To approximately 20 mg of amorphous lyophilized osanetant was added 0.3 mL of solvent for liquid counterion experiments. 0.2 mL of solvent was employed for solid counterion experiments. […] To the stirring mixture was then added 1.05 mol eq. of the appropriate counterion. Where solid counterions were used, the vial which contained the counterion was washed in to the osanetant containing vial with 0.1 mL of the appropriate solvent. Additional solvent was added where necessary. The experiments were thermally cycled as follows: heated from 25 to 40° C. at a rate of 0.1° C./min; 1 h at 40° C.; Cool to 5° C. at a rate of 0.1° C.; 1 h at 5° C.; 40° C. at a rate of 0.1° C./min; […] The crystallization experiments were thermally cycled overnight, then slurries were isolated by centrifugation. XRPD analysis was carried out on any isolated solids or gums. The XRPD plate, and the isolated solids, were then dried at 40° C. for about 24 h, and XRPD analysis was repeated. The XRPD plate was then dried at 40° C./75% RH for about 24 h and XRPD analysis was again repeated. All other samples were allowed to evaporated at ambient temperature and pressure.

CC(=O)N(C)C1(c2ccccc2)CCN(CCC[C@]2(c3ccc(Cl)c(Cl)c3)CCCN(C(=O)c3ccccc3)C2)CC1.Cc1ccc(S(=O)(=O)O)cc1 [pTSA Form 6]
HPLC Impurity Content ([1]; 40° C./75% RH): 0.11 % w/w
HPLC Impurity Content ([1]; 80° C.): 0.88 % w/w
HPLC Impurity Content ([1]; Ambient Light): 0.11 % w/w
Concentration ([2]; pH 1.2): 45800 ng/mL
Concentration ([2]; pH 4.5): 63000 ng/mL
Concentration ([2]; pH 6.8): 35600 ng/mL

CC(=O)N(C)C1(c2ccccc2)CCN(CCC[C@]2(c3ccc(Cl)c(Cl)c3)CCCN(C(=O)c3ccccc3)C2)CC1.O=P(O)(O)O [osanetant phosphoric acid Form 7]
solid chemical stability ([1]; 7-day stability results, overall): Good and best chemical stability
solid form on 7-day stability ([1]; 7 days, elevated temperature where stated): loss in crystallinity at elevated temperature
disproportionation in buffer ([2]; pH 6.8 buffer): Disproportionation was observed

CC(=O)N(C)C1(c2ccccc2)CCN(CCC[C@]2(c3ccc(Cl)c(Cl)c3)CCCN(C(=O)c3ccccc3)C2)CC1.Cc1ccc(S(=O)(=O)O)cc1 [osanetant p-toluenesulfonic acid Form 6, (R)-N-(1-(3-(1-benzoyl-3-(3,4-dichlorophenyl)piperidin-3-yl)propyl)-4-phenylpiperidin-4-yl)-N-methylacetamide p-toluenesulfonic acid]
hydration / form conversion in water and aqueous solvent mixtures [3]: hydrated
form stability / re-hydration under ambient conditions [3]: stable
form on drying ([3]; drying (40° C. under vacuum where stated)): stable

CC(=O)N(C)C1(c2ccccc2)CCN(CCC[C@]2(c3ccc(Cl)c(Cl)c3)CCCN(C(=O)c3ccccc3)C2)CC1.O=S(=O)(O)c1ccccc1 [osanetant benzenesulfonic acid Form 1, (R)-N-(1-(3-(1-benzoyl-3-(3,4-dichlorophenyl)piperidin-3-yl)propyl)-4-phenylpiperidin-4-yl)-N-methylacetamide benzenesulfonic acid]
degradation on storage (purity) [4]: lack of degradation
degradation on storage (purity) [5]: lack of degradation
degradation on storage (purity) [6]: lack of degradation
degradation on storage (purity) [7]: lack of degradation
degradation on storage (purity) [8]: lack of degradation
degradation on storage (purity) [9]: lack of degradation
XRPD after drying at 40° C./75% RH [10]: retained; also recorded: stable; also recorded: Form 1
XRPD after drying at 40° C. [10]: Form 1

CC(=O)N(C)C1(c2ccccc2)CCN(CCC[C@]2(c3ccc(Cl)c(Cl)c3)CCCN(C(=O)c3ccccc3)C2)CC1.Cc1ccc(S(=O)(=O)O)cc1 [osanetant p-toluenesulfonic acid Form 5]
form stability / re-hydration under ambient conditions [3]: rehydrates to Form 1; also recorded: re-hydrated to Form 1; also recorded: hydrated at ambient conditions to Form 1

(R)-N-(1-(3-(1-benzoyl-3-(3,4-dichlorophenyl)piperidin-3-yl)propyl)-4-phenylpiperidin-4-yl)-N-methylacetamide naphthalene-2-sulfonic acid [osanetant naphthalene-2-sulfonic acid Form 2]
XRPD after drying at 40° C./75% RH [10]: retained; also recorded: stable; also recorded: Form 2*
XRPD after drying at 40° C. [10]: retained; also recorded: Form 2*

CC(=O)N(C)C1(c2ccccc2)CCN(CCC[C@]2(c3ccc(Cl)c(Cl)c3)CCCN(C(=O)c3ccccc3)C2)CC1.O=P(O)(O)O [osanetant phosphoric acid Form 1, (R)-N-(1-(3-(1-benzoyl-3-(3,4-dichlorophenyl)piperidin-3-yl)propyl)-4-phenylpiperidin-4-yl)-N-methylacetamide phosphoric acid]
XRPD after drying at 40° C./75% RH [10]: converted to Pattern 4; also recorded: Form 4
XRPD after drying at 40° C. [10]: Form 1

CC(=O)N(C)C1(c2ccccc2)CCN(CCC[C@]2(c3ccc(Cl)c(Cl)c3)CCCN(C(=O)c3ccccc3)C2)CC1.Cc1ccc(S(=O)(=O)O)cc1 [osanetant p-toluenesulfonic acid Form 4, (R)-N-(1-(3-(1-benzoyl-3-(3,4-dichlorophenyl)piperidin-3-yl)propyl)-4-phenylpiperidin-4-yl)-N-methylacetamide p-toluenesulfonic acid]
XRPD after drying at 40° C./75% RH [10]: lost crystallinity; also recorded: Amorphous

CC(=O)N(C)C1(c2ccccc2)CCN(CCC[C@]2(c3ccc(Cl)c(Cl)c3)CCCN(C(=O)c3ccccc3)C2)CC1.O=S(=O)(O)c1ccccc1 [osanetant benzenesulfonic acid Form 2, (R)-N-(1-(3-(1-benzoyl-3-(3,4-dichlorophenyl)piperidin-3-yl)propyl)-4-phenylpiperidin-4-yl)-N-methylacetamide benzenesulfonic acid]
XRPD after drying at 40° C./75% RH [10]: converted to Pattern 1; also recorded: Form 1
